Experimental findings from patent US9198423B2, “Active compound combinations” (BAYER INTELLECTUAL PROPERTY GMBH, priority 2011, dated 2015) are described below.

Molecules are shown by their SMILES.

Test [1] relates to Alternaria solani. The test can be described thus: Alternaria test (tomatoes)/preventive. As to conditions: preventive spray, evaluated 3 days after inoculation. It is filed as in vivo, Alternaria solani on tomatoes. The procedure: Alternaria Test (Tomatoes)/Preventive [table] To produce a suitable preparation of active compound, 1 part by weight of active compound is mixed with the stated amounts of solvent and emulsifier, and the concentrate is diluted with water to the desired concentration. To test for preventive activity, young plants are sprayed with the preparation of active compound at the stated rate of application. After the spray coating has dried on, the plants are inoculated with an aqueous spore suspension of Alternaria solani. The plants are then placed in an incubation cabinet at approximately 20° C. and a relative atmospheric humidity of 100%. The test is evaluated 3 days after the inoculation. 0% means an efficacy which corresponds to that of the untreated control while an efficacy of 100% means that no disease is observed.

Test [2] has as its system Venturia inaequalis. The test can be described thus: Venturia test (apples)/preventive. As to conditions: preventive spray, evaluated 10 days after inoculation. It is filed as in vivo, Venturia inaequalis on apples. The procedure: Venturia Test (Apples)/Preventive [table] To produce a suitable preparation of active compound, 1 part by weight of active compound is mixed with the stated amounts of solvent and emulsifier, and the concentrate is diluted with water to the desired concentration. To test for preventive activity, young plants are sprayed with the preparation of active compound at the stated rate of application. After the spray coating has dried on, the plants are inoculated with an aqueous conidia suspension of the causal agent of apple scab (Venturia inaequalis) and then remain for 1 day in an incubation cabinet at approximately 20° C. and a relative atmospheric humidity of 100%. The plants are then placed in a greenhouse at approximately 21° C. and a relative atmospheric humidity of approximately 90%. The test is evaluated 10 days after the inoculation. 0% means an efficacy which corresponds to that of the untreated control, while an efficacy of 100% means that no disease is observed.

As for `CC(C)NC(=O)N1CC(=O)N(c2cc(Cl)cc(Cl)c2)C1=O` [(B) Iprodione, Iprodione], the “Efficacy in % found” value in test [1] (application rate 40 ppm a.i.) is on record as 70%; in test [2] (application rate 40 ppm a.i.) it was 3%.

`OC(Cc1ccccc1Cl)(Cn1nc[nH]c1=S)C1(Cl)CC1` (stereo not shown) [(A) Prothioconazole, Prothioconazole]: the “Efficacy in % found” value in test [1] (application rate 10 ppm a.i.) is 50%; in test [2] (application rate 10 ppm a.i.), 43%.
